Laboratory results from US11098056B2, “UDP glycosyltransferase inhibitors and methods of use” (GENZYME CORPORATION, priority 2018, dated 2021).

Assays:
UGT8 [1] = molecular target: T1, UGT8 (Mus musculus, UniProt Q64676); assay: Acute in vivo target engagement in mouse kidney: inhibition of de novo GalCer and SFT synthesis (13C-Gal incorporation); conditions: 5 hr
T1 construct: Groups of 5 male C57Bl/6 mice, 6-9 wks of age (Charles River Laboratories); tissue Charles River Laboratories; host or cells: mouse kidney (adult C57Bl/6) and mid-/hind brain (neonatal P14-P21 mice)
T1 sequence (Q64676 21-541): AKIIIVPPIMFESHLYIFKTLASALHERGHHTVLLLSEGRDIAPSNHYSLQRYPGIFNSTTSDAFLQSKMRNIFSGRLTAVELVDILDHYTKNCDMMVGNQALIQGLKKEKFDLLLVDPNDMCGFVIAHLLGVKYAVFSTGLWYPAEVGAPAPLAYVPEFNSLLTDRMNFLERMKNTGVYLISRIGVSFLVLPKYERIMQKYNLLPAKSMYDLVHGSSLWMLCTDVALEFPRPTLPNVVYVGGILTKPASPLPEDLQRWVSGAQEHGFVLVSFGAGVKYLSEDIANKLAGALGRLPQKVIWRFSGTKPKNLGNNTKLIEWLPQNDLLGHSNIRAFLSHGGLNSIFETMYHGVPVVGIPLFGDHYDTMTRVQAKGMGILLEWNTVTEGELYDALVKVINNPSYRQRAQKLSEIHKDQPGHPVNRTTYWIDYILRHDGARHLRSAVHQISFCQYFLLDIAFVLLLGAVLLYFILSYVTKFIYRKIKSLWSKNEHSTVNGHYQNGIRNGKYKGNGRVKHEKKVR
Experimental: In vivo target engagement was initially assessed in an adult mouse kidney model assessing de novo synthesis inhibition. This model was selected because the high rate of GalCer and SFT synthesis and turnover in kidney facilitated development of an acute one-day model assessing the effect of a single administration of compound at different doses. Inhibition of de novo synthesis was determined by measuring the amount of 13C6 galactose (13C-Gal; CIL, cat #CLM-1570-pk) incorporated into GalCer and SFT.
Groups of 5 male C57Bl/6 mice, 6-9 wks of age (Charles River Laboratories) were maintained in an ALAAC-accredited vivarium with food and water ad libitum and were allowed to acclimate one week before initiating studies. Three to 5 dose groups received test article formulated in a clinically-acceptable formulation, administered by oral gavage; the control group received vehicle alone. One hr after administration of test article, animals received an intraperitoneal (i.p.) injection of 13C-Gal (3 g/kg); 5 hr after administration of test article, animals were euthanized and a kidney was removed and divided into two longitudinal samples that were snap-frozen and stored at −80° C. until processing for test article tissue exposure and lipid analysis (GalCer and SFT). Typically, brain and plasma samples were also collected for test article exposure.
(§1) Mass Spectrometer Analysis of SFT
(§2) Quantitative analysis of sphingolipids (SLs) was performed using liquid chromatography with tandem mass spectrometry analysis (LC-MS/MS). Briefly, to extract glucosylceramide (GlcCer), galactosylceramide (GalCer), and sulfatide (ST), an aliquot of 10 μL of mouse tissue homogenate (100 mg/ml in water) was mixed with 1 mL of extraction solution (0.2% Formic Acid; 5 mM Ammonium formate in (50:50) Methanol:Acetonitrile (v/v) with internal standards (IS)). C17-ST and D35 labeled C18-GalCer were used for IS. The mixtures were vortexed and centrifuged. The resulting supernatants were transferred to HPLC vials for LC-MS/MS analysis. GlcCer and GalCer were separated using a Waters Acquity UPLC and Atlantis HILIC Silica column (2.1 mm×150 mm, […], Waters Corp., Milford, Mass.) and analyzed by an API 5000 triple quadrupole mass spectrometer in MRM mode (Applied Biosystems, Foster City, Calif.). ST were analyzed using a Waters Acquity UPLC and BEH C18 column (2.1 mm×50 mm, […], Waters Corp., Milford, Mass.) and analyzed by an API 6500 triple quadrupole mass spectrometer in MRM mode (Applied Biosystems, Foster City, Calif.).

UGT8 [2] = molecular target: T1, UGT8; assay: Acute in vivo target engagement in neonatal mouse brain: inhibition of de novo GalCer and SFT synthesis (13C-Gal incorporation); conditions: neonatal mouse (P14-P21) brain, 5 hr
Excerpt: SFT biosynthesis and turnover in the myelin of adult mice is very low, necessitating development of a short-term acute model of de novo synthesis inhibition. To do this, we took advantage of the fact that unlike primates in which most developmental myelination occurs in utero, in rodents, peak myelination occurs between postnatal day 14 (P14) and P22.
Groups of 5 neonatal mice age-matched between P14 and P21 received test article formulated in a clinically-acceptable formulation, administered by oral gavage; the control group received vehicle alone. One hr after administration of test article, animals received an i.p. injection of 13C-Gal (3 g/kg); 5 hr after administration of test article, animals were euthanized, brains were removed and dissected for recovery of mid- and hind brain which was snap-frozen and stored at −80° C. until analysis. Plasma samples were also collected for test article exposure analysis.
as §1, §2

UGT8 [3] = molecular target: T2, UGT8 (Homo sapiens, UniProt Q16880); assay: In vitro sulfatide (SFT) synthesis inhibition in OE19 cells, LC-MS/MS readout; assay type: cell-based; conditions: 72 hr, sulfatide by LC-MS/MS, read-out: Potency range (IC50, In-vitro SFT)
T2 construct: host or cells: OE19 cells
T2 sequence (Q16880 21-541): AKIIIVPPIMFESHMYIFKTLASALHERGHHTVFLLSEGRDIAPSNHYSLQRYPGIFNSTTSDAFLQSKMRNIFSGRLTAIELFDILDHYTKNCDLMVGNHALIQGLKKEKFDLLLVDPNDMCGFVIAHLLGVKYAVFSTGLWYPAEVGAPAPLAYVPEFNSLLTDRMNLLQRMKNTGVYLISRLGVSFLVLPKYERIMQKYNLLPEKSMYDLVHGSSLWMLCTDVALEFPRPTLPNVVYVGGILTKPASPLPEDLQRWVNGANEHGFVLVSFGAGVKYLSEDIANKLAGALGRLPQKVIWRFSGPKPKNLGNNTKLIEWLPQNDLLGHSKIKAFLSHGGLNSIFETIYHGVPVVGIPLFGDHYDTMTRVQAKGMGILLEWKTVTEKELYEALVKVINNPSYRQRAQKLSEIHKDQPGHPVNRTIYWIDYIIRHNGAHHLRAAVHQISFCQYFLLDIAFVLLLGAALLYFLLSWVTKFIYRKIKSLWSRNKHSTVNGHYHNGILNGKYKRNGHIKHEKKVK
Procedure, shortened: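 OE19 cells, 2,500/well, exposed to compound dose-downs in triplicate for 72 hr at 37° C (screening at 10 μM final). Sulfatide quantified by LC-MS/MS (C8 UPLC, isocratic, negative-ion MRM) with C17 SFT internal standard; IC50 from concentration-response curves.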

CNC(=O)c1csc2c(C(F)(F)F)cc(N3CCC(OC(=O)NC4CC4)CC3)nc12 [Example 473, 1-(3-(Methylcarbamoyl)-7-(trifluoromethyl)thieno[3,2-b]pyridin-5-yl)piperidin-4-yl cyclopropylcarbamate]
kidney GalCer % inh (UGT8 [1]; single oral dose 3 mg/kg): C (C < 40%) | kidney Sulfatide % inh (UGT8 [1]; single oral dose 3 mg/kg): C (C < 40%) | kidney GalCer % inh (UGT8 [1]; single oral dose 10 mg/kg): C (C < 40%) | kidney Sulfatide % inh (UGT8 [1]; single oral dose 10 mg/kg): B (40% < B < 80%) | kidney GalCer % inh (UGT8 [1]; single oral dose 50 mg/kg): B (40% < B < 80%) | kidney Sulfatide % inh (UGT8 [1]; single oral dose 50 mg/kg): A (A > 80%) | brain GalCer % inh (UGT8 [2]; single oral dose 10 mg/kg): A, A, A (A > 80%) | brain Sulfatide % inh (UGT8 [2]; single oral dose 10 mg/kg): A, A, A (A > 80%) | brain GalCer % inh (UGT8 [2]; single oral dose 30 mg/kg): A, A, A (A > 80%) | brain Sulfatide % inh (UGT8 [2]; single oral dose 30 mg/kg): A, A, A (A > 80%) | brain GalCer % inh (UGT8 [2]; single oral dose 100 mg/kg): A, A, A (A > 80%) | brain Sulfatide % inh (UGT8 [2]; single oral dose 100 mg/kg): A, A, A (A > 80%) | IC50 (UGT8 [3]): < 100 nM
